Experimental data from US9399656B2, “Compound, method for producing same, and use of same” (Microbial Chemistry Research Foundation, priority 2011, dated 2016).

Assays:
Type in all cases: cell-based, human
SW982 cell = experiment: Cytotoxicity test (Cell Counting Kit-8, cell proliferation rate); settings: SW982 cells, 48 hours
Description: The compound represented by the Structural Formula (A) was evaluated for cytotoxicity as follows.
A SW982 cell (purchased from ATCC) at 2×10^3 cells/well was prepared with DMEM/F12 medium (manufactured by Thermo Fisher Scientific) containing 10% fetal bovine serum (manufactured by Nichirei Corporation), followed by inoculating into a 96-well culture plate so that each well contained 0.1 mL. At the same time, the test substance produced in Production Example 1 (the compound represented by the Structural Formula (A)) was added to each well at a concentration described in the following Table 1, followed by incubating for 48 hours under a condition of 37° C. and 5% CO2. After the incubation for 48 hours, 10 μL of a cytometric kit (CELL COUNTING KIT-8, manufactured by DOJINDO LABORATORIES) was added to the each well, followed by incubating for 2 hours. Then, an absorbance at 450 nm G was measured.
The cytometric kit allows living cells to develop a color. Accordingly, the higher absorbance at 450 nm is, the larger the number of living cells is, that is, cell proliferation is not affected. Therefore, based on the measurement result of absorbance in the each well, a cell proliferation rate was calculated according to the following Expression (3) to thereby evaluate an influence upon the cell proliferation: Cell proliferation rate (%)=G/H×100 Expression (3)
G denotes an absorbance at 450 nm in the system containing the test substance, and
H denotes an absorbance at 450 nm in the system containing no test substance (i.e., at a concentration of 0 nM in the following Table 1).

[1] = tested on: PGE2 production in SW982 cell; experiment: PGE2 production inhibitory action in bradykinin-stimulated SW982 cells (HTRF kit); settings: bradykinin 1 nM, 30 min, test substance 2 to 10,000 ng/mL, FIG. 5
Description: The compound represented by the Structural Formula (A) was evaluated for a PGE2 production inhibitory action as follows.
A SW982 cell which is a human […] cell line (purchased from ATCC (American Type Culture Collection)) was suspended into DMEM/F12 (Dulbecco's Modified Eagle Medium: Nutrient Mixture F-12, manufactured by Thermo Fisher Scientific) containing 10% fetal bovine serum (manufactured by Nichirei Corporation), followed by inoculating into a 96-well culture plate at 1×10^4 cells/well and incubating overnight.
After the incubation overnight, the medium in the 96-well culture plate containing the SW982 cells was replaced with HEPES-HANKS buffer (manufactured by NISSUI PHARMACEUTICAL CO., LTD.). […] After incubating for 30 min, a culture supernatant was collected, followed by measuring a PGE2 concentration A in the culture supernatant using a kit based on a HTRF (Homogeneous Time-Resolved Fluorescence) method (62P2APEB, manufactured by Cisbio Bioassays).
As a negative control, a PGE2 concentration B was measured in the same manner as in the measurement of the PGE2 concentration in the system containing the test substance, except that neither the test substance nor bradykinin (inflammatory stimulating agent) was added. […]

[2] = tested on: PGI2 production in SW982 cell; experiment: PGI2 production inhibitory action (6-keto-PGF1α enzyme immunoassay) in bradykinin-stimulated SW982 cells; settings: bradykinin 1 nM, 30 min, test substance 14 to 10,000 ng/mL, FIG. 5
Description: The compound represented by the Structural Formula (A) was evaluated for a PGI2 production inhibitory action as follows. PGI2 is metabolized to 6-keto-PGF1α (6-keto-prostaglandin F1α) which is a stabilized metabolite. Therefore, a concentration of PGI2 produced can be determined by measuring a concentration of 6-keto-PGF1α.
A SW982 cell which is human […] cell line (purchased from ATCC) was suspended into DMEM/F12 (manufactured by Thermo Fisher Scientific) containing 10% fetal bovine serum (manufactured by Biowest), followed by inoculating into a 96-well culture plate at 1×10^4 cells/well and incubating overnight. […]
As a negative control, a 6-keto-PGF1α concentration E was measured in the same manner as in the measurement of the 6-keto-PGF1α concentration in the system containing the test substance, except that neither the test substance nor bradykinin (inflammatory stimulating agent) was added.
As a positive control, a 6-keto-PGF1α concentration F was measured in the same manner as in the measurement of the 6-keto-PGF1α concentration in the system containing the test substance, except that the test substance was not added.
Based on the measurement result of 6-keto-PGF1α concentration in the each well, a 6-keto-PGF1α production rate was calculated according to the following Expression (2): 6-keto-PGF1α production rate (%)=(D−E)/(F−E)×100 Expression (2) […]

What does the source list for `COC1=C(C)C(=O)c2ccc(OC3OC(C)C(O)C(O)C3O)c(NNC(C)=O)c2C1=O` (stereo not shown) [Structural Formula (A)]?
Cell proliferation rate (%) (SW982 cell; concentration 111 nM): 100%; Cell proliferation rate (%) (SW982 cell; concentration 333 nM): 103%; Cell proliferation rate (%) (SW982 cell; concentration 10,000 nM): 111%; Cell proliferation rate (%) (SW982 cell; concentration 30,000 nM): 95%; Effect on cell proliferation of the SW982 cell (SW982 cell; up to 30,000 nM (Table 1)): not to affect cell proliferation; PGE2 production rate [1]: decreased; 6-keto-PGF1α production rate [2]: decreased
